Legend:
[1] = system: Mycobacterium smegmatis strain M6-3; experiment: Relative antibacterial potency, paper-disc agar diffusion method; format: cell-based; details: relative to tallysomycin A standard=1000 mcg/mg
Method: The relative antibacterial potencies (tallysomycin A standard=1000 mcg/mg) of the tallysomycin derivatives were determined by the paper-disc agar diffusion method using Mycobacterium smegmatis strain M6-3 as the assay organism.

[2] = Nephrotoxicity in a mouse model utilizing BUN measurement; format: in vivo; details: compared with bleomycin at equitoxic doses
[3] = system: Melanotic melanoma B16; experiment: Antitumor activity in mice, melanotic melanoma B16; format: in vivo, BDF1 mice; details: copper-chelated form unless otherwise stated
Outline: (§1)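 P388 (3×10^5 cells) and Lewis lung (5×10^5) i.p. in BDF1 mice, B16 (5×10^5) s.c. in BDF1, Sarcoma 180 ([…]) i.p. in male dd mice. ED125 (Sarcoma 180 ED150) from median-survival T/C, 45 days; B16 ID50 from day-16 tumor size.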

[4] = in vivo
[5] = in vivo; remark: listed apart in the source
[6] = system: malignant tumors; experiment: Initial studies using experimental animals: antitumor activity; format: in vivo; details: broad spectrum of malignant tumors; copper-free and copper-chelated forms
[7] = system: lysogenic bacterium E. coli W1709 (λ); experiment: Prophage induction of lysogenic bacterium (ILB activity); format: cell-based; details: t/c ratio of plaque counts greater than 3.0
Outline: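 Plaques counted on agar plates containing test compound and on control plates, following Lein et al. A test/control plaque ratio above 3.0 counted as significant. Value given as the minimum inducible concentration.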

[8] = system: Sarcoma 180; experiment: animal or person; format: in vivo, dd-strain mice; details: copper-chelated form unless otherwise stated
Outline: as §1

[9] = system: Aspergillus fumigatus IAM 2593; experiment: MIC, two-fold agar dilution method; format: cell-based; details: Sabouraud agar
Outline: (§2)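 For each organism, growth was scored on agar plates carrying doubling concentrations of compound. Bacteria, both gram-positive and acid-fast, grew on nutrient agar, and A. fumigatus grew on Sabouraud agar.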

[10] = system: Bacillus subtilis PCI 219; experiment: MIC, two-fold agar dilution method; format: cell-based; details: nutrient agar
Outline: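 Compounds are diluted two-fold through agar plates: Sabouraud medium for the fungus, nutrient medium for the bacterial strains, including the acid-fast Mycobacterium 607. Organisms are then applied and the minimum inhibitory concentration is recorded.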

[11] = system: Mycobacterium 607; experiment: MIC, two-fold agar dilution method; format: cell-based; details: nutrient agar
Outline: as §2

[12] = system: Escherichia coli NIHJ; experiment: MIC, two-fold agar dilution method; format: cell-based; details: nutrient agar
Outline: (§3)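 Agar dilution (2-fold series) on nutrient agar (bacteria) or Sabouraud agar (fungi).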

[13] = system: Staphylococcus aureus Smith; experiment: MIC, two-fold agar dilution method; format: cell-based; details: nutrient agar
Outline: as §2

[14] = system: Sarcina lutea PCI1001; experiment: MIC, two-fold agar dilution method; format: cell-based; details: nutrient agar
Outline: as §2

[15] = system: Candida albicans IAM 4888; experiment: MIC, two-fold agar dilution method; format: cell-based; details: Sabouraud agar
Outline: as §3

[16] = system: Proteus mirabilis A9554; experiment: MIC, two-fold agar dilution method; format: cell-based; details: nutrient agar
Outline: as §3

[17] = Acute toxicity, single dose LD50; format: in vivo, dd mice; details: ip, 30 days observation, copper-chelated form unless otherwise stated
Method: Graded doses of test compounds were administered intraperitoneally to groups of dd mice. The injection was given one time only or once daily for 9 consecutive days. Death or survival of the animals was recorded for 30 days after the last dose of test compound to calculate the single or multiple median lethal dose (LD50).

Cc1c(N)nc([C@H](CC(N)=O)NC[C@H](N)C(N)=O)nc1C(=O)N[C@H](C(=O)N[C@H](C)[C@@H](O)CC(=O)N[C@H](C(=O)NC(O[C@@H]1O[C@@H](C)[C@@H](N)[C@@H](O)[C@H]1O)C(O)c1nc(-c2nc(C(=O)NCCCCN)cs2)cs1)[C@@H](C)O)[C@@H](O[C@@H]1O[C@@H](CO)[C@@H](O)[C@H](O)[C@@H]1O[C@H]1O[C@H](CO)[C@@H](O)[C@H](OC(N)=O)[C@@H]1O)c1cnc[nH]1 (stereo partly drawn) [Tallysomycin S10b]
Antibacterial potency [1]: 1,100 μ/mg | toxicity to the kidney (BUN) [2]: no greater than that of bleomycin at equitoxic doses | Antitumor activity B16 (ID50) ([3]; ip, once daily 9 days, 50% inhibition of tumor growth, day 16, 23040 min): 0.59 mg/kg/day | Antitumor therapeutic index B16 ([3]; single dose LD50/ID50): 46 | undesirable side effects (e.g. nephrotoxicity) [4]: less undesirable side effects (e.g. nephrotoxicity) than the naturally-occurring tallysomycin A and B | dose response slope, lung hydroxyproline [5]: flatter than that observed with bleomycin | hydroxyproline content at high doses [5]: reduced compared to that of animals treated with bleomycin at equitoxic doses | lung hydroxyproline [5]: caused an increase in lung hydroxyproline suggesting pulmonary toxicity | antitumor activity [6]: excellent antitumor activity against a broad spectrum of malignant tumors | ILB activity (minimum inducible concentration) [7]: 0.31 µg/mL | Antitumor activity S180 (ED150) ([8]; ip, once daily 9 days, effective dose 150, survival): 0.03 mg/kg/day | Antitumor therapeutic index S180 ([8]; single dose LD50/ED150): 900 | minimum inhibitory concentration (MIC) [9]: 6.3 | minimum inhibitory concentration (MIC) [10]: 0.2 | minimum inhibitory concentration (MIC) [11]: 0.2 | minimum inhibitory concentration (MIC) [12]: 0.8 | minimum inhibitory concentration (MIC) [13]: 6.3 | minimum inhibitory concentration (MIC) [14]: 3.1 | minimum inhibitory concentration (MIC) [15]: 12.5 | minimum inhibitory concentration (MIC) [16]: 3.1 | LD50 single dose [17]: 27 mg/kg/day

— patent US4314028A, “Fermentation process for producing tallysomycin compounds” (priority 1980, dated 1982)
